Assay results published in patent US6855512B2, “Methods for identifying inhibitors of cytochrome P450RAI” (Allergan, Inc., priority 2000, dated 2005).

Experiments:
RARβ [1] = biological target: T1, RARβ (Homo sapiens, UniProt P10826); assay: ligand binding assay, RARβ; conditions: Kd line of EC50/(EFFICACY)/Kd, K = thousand, read-out: RAR β Kd
T1 sequence (P10826 1-455): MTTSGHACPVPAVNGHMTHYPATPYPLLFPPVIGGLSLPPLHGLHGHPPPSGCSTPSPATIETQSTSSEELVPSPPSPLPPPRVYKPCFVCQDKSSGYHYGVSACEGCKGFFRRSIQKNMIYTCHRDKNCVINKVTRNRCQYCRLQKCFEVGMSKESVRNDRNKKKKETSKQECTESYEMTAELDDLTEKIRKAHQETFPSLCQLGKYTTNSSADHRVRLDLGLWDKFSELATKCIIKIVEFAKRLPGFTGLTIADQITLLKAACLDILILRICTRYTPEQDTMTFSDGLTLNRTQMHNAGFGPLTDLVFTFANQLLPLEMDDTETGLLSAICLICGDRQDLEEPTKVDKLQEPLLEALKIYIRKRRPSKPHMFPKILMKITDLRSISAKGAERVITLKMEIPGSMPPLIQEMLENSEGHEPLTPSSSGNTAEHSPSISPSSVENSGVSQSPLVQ
From the text: (§1) Assays described below measure the ability of a compound to bind to, and/or activate various retinoid receptor subtypes. When in these assays a compound binds to a given receptor subtype and activates the transcription of a reporter gene through that subtype, then the compound is considered an agonist of that receptor subtype. […] In the below described assays the ability of the compounds to bind to RARα, RARβ, RARγ, RXRα, RXRβ and RXRγ receptors, and the ability or inability of the compounds to activate transcription of a reporter gene through these receptor subtypes can be tested.
(§2) The results obtained in this assay are expressed in EC50 numbers, as they are also in the chimeric receptor transactivation assay. The results of ligand binding assay are expressed in Kd numbers.

P450RAI-1 = biological target: T2, P450RAI-1 (Homo sapiens, UniProt O43174); assay: P450RAI-1 cell-based inhibitor assay (intact HeLa); conditions: read-out: P450RAI INHIBITION DATA INTACT HELA IC50
T2 construct: expressed in transfected cells; host or cells: HeLa (stably transfected, hygromycin selection)
T2 sequence (O43174 1-497): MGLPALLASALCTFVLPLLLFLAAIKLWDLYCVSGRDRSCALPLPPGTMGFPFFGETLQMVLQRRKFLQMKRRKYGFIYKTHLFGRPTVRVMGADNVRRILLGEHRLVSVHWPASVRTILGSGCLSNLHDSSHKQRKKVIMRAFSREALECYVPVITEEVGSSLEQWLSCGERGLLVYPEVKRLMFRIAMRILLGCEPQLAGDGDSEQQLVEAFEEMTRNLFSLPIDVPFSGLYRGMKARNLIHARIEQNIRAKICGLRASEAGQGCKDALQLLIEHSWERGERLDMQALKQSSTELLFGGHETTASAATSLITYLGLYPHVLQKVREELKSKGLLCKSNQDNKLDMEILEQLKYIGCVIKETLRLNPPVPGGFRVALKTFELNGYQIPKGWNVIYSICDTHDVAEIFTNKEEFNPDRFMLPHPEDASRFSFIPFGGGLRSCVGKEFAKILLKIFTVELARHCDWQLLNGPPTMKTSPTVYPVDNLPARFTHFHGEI
Procedure: P450RAI-1 Cell-Based Inhibitor Assay:
P450RAI-1 stably transfected HeLa cells are maintained in […] tissue culture dishes in Modified Eagle's Medium (MEM) containing 10% Fetal Bovine Serum (FBS) and 100 μg/ml hygromycin. Exponentially growing cells are harvested by incubating in trypsin. Cells are then washed with 1× Phosphate Buffered Saline (PBS) and plated in a 48-well plate at 5×10^5 cells in 0.2 ml MEM medium containing 10% FBS and 0.05 μCi [^3H]-RA in the presence or absence of increasing concentrations of the test compounds. The compounds are diluted in 100% DMSO and then added in triplicate wells at either 10, 1 or 0.1 μM final concentration. As a positive control for RA metabolism inhibition, cells are also incubated with ketoconazole at 100, 10 and 1 μM. Cell are incubated for 3 hours at 37° C. […] The water soluble radioactivity is quantified using β-scintillation counter. IC50 values represent the concentration of inhibitor required to inhibit all-trans-RA metabolism by 50 percent and are derived manually from log-transformed data.

RARγ = biological target: T3, RARγ (Homo sapiens, UniProt P13631); assay: chimeric receptor transactivation assay, RARγ; assay type: cell-based; conditions: EC50 line of EC50/(EFFICACY)/Kd, read-out: RAR γ EC50
T3 sequence (P13631 185-454 limits assumed): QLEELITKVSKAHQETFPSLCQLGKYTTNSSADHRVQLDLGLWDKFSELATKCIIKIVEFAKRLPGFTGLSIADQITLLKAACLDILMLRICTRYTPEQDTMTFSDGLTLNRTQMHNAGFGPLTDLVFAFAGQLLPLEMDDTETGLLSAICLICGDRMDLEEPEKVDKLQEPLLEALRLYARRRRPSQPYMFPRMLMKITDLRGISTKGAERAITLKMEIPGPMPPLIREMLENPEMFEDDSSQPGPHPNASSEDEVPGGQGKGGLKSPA
From the text: as §1, §2

RARα = biological target: T4, RARα (Homo sapiens, UniProt P10276); assay: chimeric receptor transactivation assay, RARα; assay type: cell-based; conditions: EC50 line of EC50/(EFFICACY)/Kd, read-out: RAR α EC50
T4 sequence (P10276 183-417 limits assumed): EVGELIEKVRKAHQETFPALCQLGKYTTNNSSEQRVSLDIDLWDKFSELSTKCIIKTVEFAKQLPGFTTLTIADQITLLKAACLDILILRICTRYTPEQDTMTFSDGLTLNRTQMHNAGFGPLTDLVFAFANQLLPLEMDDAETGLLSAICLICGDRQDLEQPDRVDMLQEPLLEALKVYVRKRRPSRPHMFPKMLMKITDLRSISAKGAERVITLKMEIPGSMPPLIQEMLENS
From the text: as §1, §2

RARβ [2] = biological target: T5, RARβ (Homo sapiens, UniProt P10826); assay: chimeric receptor transactivation assay, RARβ; assay type: cell-based; conditions: EC50 line of EC50/(EFFICACY)/Kd, read-out: RAR β EC50
T5 sequence (P10826 183-417 limits assumed): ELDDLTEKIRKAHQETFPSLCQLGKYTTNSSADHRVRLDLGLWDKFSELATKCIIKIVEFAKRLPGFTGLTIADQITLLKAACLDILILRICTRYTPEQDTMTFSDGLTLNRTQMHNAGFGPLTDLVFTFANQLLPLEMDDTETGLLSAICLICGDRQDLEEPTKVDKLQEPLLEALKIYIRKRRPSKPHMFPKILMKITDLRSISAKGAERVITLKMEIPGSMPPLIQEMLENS
From the text: as §1, §2

Kd (RARβ [1]): 1100 nM
IC50 (P450RAI-1): 520 nM
EC50 (RARγ): 180 nM
EC50 (RARα): > 10000 nM
EC50 (RARβ [2]): > 10000 nM
SMILES: CC1(C)CC(C)(C)c2cc(C#Cc3ccc(C(=O)O)cc3)ccc2O1 [Compound 201]
